Test results from US20090074885A1, “Reversible Hydrophobic Modification of Drugs for Improved Delivery to Cells” (Roche Madison Inc., priority 2003, published 2009).

Assays:
[1] = test system: cells; assay: SYTOX Green dead cell indicator after prodrug treatment; format: cell-based; details: following treatment with prodrug
Protocol: (§1) In Vitro cellular uptake of PI, RRH-PI compounds, and IV evaluated by fluorescence measurements. PI and the RRH-prodrugs were tested for cellular uptake on several cell lines which included B16 (murine melanoma), Hepa 1-6 (mouse hepatoma), SK-OV-3 (also SKOV-3, human ovarian carcinoma), OVCAR-3 (human ovarian carcinoma), Jurkat (human T-lymphocyte), 293 (human embryonic kidney), and MC38 (mouse colon carcinoma) cells. Adherent cells were plated at 2.5×10^5 cells/well on 6-well plates 24 h prior to testing. The growth media was removed from individual wells and the drug/prodrug was immediately added to the well with the mixing chamber. Final drug/prodrug concentrations were 0.150 μmol in 220 μl total volume (20 μl OS, 200 μl ITG). After 30 sec the drug solution was removed (aspirated) and 2 ml complete media was added to the cells. […] Fluorescent microscopy studies were conducted with a three laser LSM 510 confocal microscope, an Axiovert S100 fluorescent microscope, or an Axioplan2 fluorescent microscope (all Zeiss) equipped with filter sets for the rhodamine fluorescence channel (λex=BP 450/12, λem=LP 590 nm filter set) and the fluorescein fluorescent channel (λex=BP 546/90, λem=LP 515 nm filter set). […]

[2] = test system: Hepa 1-6 cells; assay: Calcein AM live cell marker after prodrug treatment; format: cell-based, mouse; details: following treatment with prodrug
Protocol: as §1

[3] = test system: cells; assay: Testing of mixing chamber: PI uptake in cells; format: cell-based; details: PI in DMF and isotonic glucose through mixing chamber
Excerpt: Development of a Mixing Chamber. Due to the instability of the RRH-PI prodrugs in water, it was necessary to dissolve them in a small amount of pharmaceutically acceptable organic solvent (OS) and mix them with an aqueous solution immediately prior to delivery. Rapid and efficient mixing was critical for optimum delivery and minimalization of toxicity due to the organic solvent. A passive mixing chamber with colliding flows was utilized to mix the drug/RRH-prodrug (dissolved in a carrier solvent such as an organic solvent) with an aqueous solution immediately prior use. Two syringe pumps (Harvard Pumps, PHD 2000) were utilized to deliver the solutions to the mixing chamber. Typically mixtures were 1:10 by volume with 0.67 μl of PI or RRH-PI/OS solution (7.48 mM) diluted with 6.7 μl of isotonic glucose (ITG), buffer, or media per sec, for a total delivery volume of 220 μl (0.150 μmol of PI or RRH-PI) over 30 sec (final organic solvent concentration of 9.1% by vol.).
The mixing chamber (FIG. 3) was constructed from 18 G stainless steel tubing (38 mm in length) by drilling a 0.2 mm hole at a 45 degree angle in the tubing wall and then inserting 30 G stainless steel tubing. The 30 G stainless tubing was angled and advanced into the 18 G tubing so as to be centered within the larger tubing and then soldered in place. […]

[4] = test system: MC38 tumor; assay: Survival after LABI in MC38 tumor bearing mice; format: in vivo, C57BL mice; details: 0.150 μmol by LABI, compared to hydrolyzed C12PMMA-PI
Protocol: FIG. 13. Days of survival following LABI delivery of C12PMMA-PI (III) or hydrolyzed C12PMMA-PI to C57BL mice. Following three weeks of MC38 tumor development C12PMMA-PI or Hydrolyzed C12PMMA-PI (0.150 μmol in 20 μl DMSO, 200 μl ITG) were delivered by LABI. The mouse abdomen was closed 4 min after drug treatment and the animals were monitored for survival time.
In vivo antitumor effect following a liver arterial bolus injection with a RRH-PI to MC 38 tumor bearing mice. LABI was conducted as previously described in order to monitor the antitumor effect of an RRH-PI prodrug. In the experiment, III (n=11) or hydrolyzed C12PMMA-PI (n=9) were injected as previously described, the mouse abdomen was closed after drug treatment and the animals were monitored for survival time. Statistical analysis was conducted using a t-test (two tailed distribution and two sample—unequal variance, Excel).

[5] = test system: SK-OV-3 ovarian tumors; assay: Intraperitoneal perfusion chemotherapy (IPPC) in SK-OV-3 mouse model; format: in vivo
Protocol: In a separate experiment, ovarian cancer development was monitored until signs of ascitis (4-5 wks). At this time, a test IPPC injection was conducted with C12PMMA-PI by adapting methodology typically used for peritoneal perfusion. Briefly, two 23 G Abbocath-T effluent catheters with multiple perforations were inserted into the peritoneal cavity and advanced to the region of the ovaries on both sides of the vertebra. The ascitic fluid was slowly aspirated with minimal negative pressure. Then an additional 23 G perforated catheter was inserted into abdomen and positioned on top of abdominal organs. 1 mL of drug/DMF/ITG solution was infused over 1 min, followed by repeated gentle massage. 5-7 min post administration, peritoneal fluid was again aspirated, and the peritoneal cavity was perfused with 10 mL of PBS via the top catheter, together with simultaneous aspiration via the lower two catheters. Special care was taken to avoid elevated abdominal pressure during the procedure. […] Confocal microscopy indicated a similar staining pattern as observed previously, with strong propidium iodide nuclear labeling of all of the outer cells exposed to peritoneal cavity, including ovarian tumors. […] All cells exposed to peritoneal cavity and thereby to the prodrug solution indicated prodrug uptake and staining, including: mesentery cells, outer layer of cells of abdominal organs, and disseminated peritoneal ovarian tumors. The tumor lesions still appeared to be more susceptible to drug uptake, indicating both greater tissue penetration and intense PI^+-staining as compared to normal abdominal tissue, with the exception of the mesentery which was also was heavily PI^+.

## CCCCCCCCCCCCCCCCCC[Si](C)(C)Nc1ccc2c(c1)c(-c1ccccc1)[n+](CCC[N+](C)(CC)CC)c1cc(N[Si](C)(C)CCCCCCCCCCCCCCCCCC)ccc21.[I-].[I-] [II, 3,8-bis[((dimethyl)octadecylsilazyl)amine] 5-(3,3-diethyl-3-methylammoniumpropyl) 6-phenyl phenanthridinium diiodide]
[1]
  cells both PI-positive and SYTOX Green positive: less than 5%
[2]
  cells both PI and calcein positive: approximately 86%

## CC[N+](C)(CC)CCC[n+]1c(-c2ccccc2)c2cc(N)ccc2c2ccc(N)cc21.[I-].[I-] [PI, Propidium iodide, reference compound]
[3]
  PI uptake in cells: very little PI uptake in cells

## CCCCCCCCCCCCNC(=O)CCC(=CCC(=O)O)C(=O)Nc1ccc2c(c1)c(-c1ccccc1)[n+](CCC[N+](C)(CC)CC)c1cc(NC(=O)C(=CCC(=O)O)CCC(=O)NCCCCCCCCCCCC)ccc21.[I-].[I-] [III, 3,8-bis-[2-(2 carboxyethylidene)-4-(dodecarbamoyl)-1-oxo-butylamine] 5-(3,3-diethyl-3-methylammoniumpropyl) 6-phenyl phenanthridinium diiodide]
[4]
  survival: increased survival
[5]
  labeling of microtumors (0.1-1 mm): heavily labeled throughout the tumor
[5]; 4-5 wks after inoculation
  depth of labeling of large tumors (5-7 mm): about 500 microns
[5]; sacrificed 3-5 h later
  survival of the perfusion procedure: All animals survived the perfusion well
